Data set [1] deals with T1, Porcine PDH E1 (Sus scrofa, UniProt P29804).
T1 sequence (P29804 31-390): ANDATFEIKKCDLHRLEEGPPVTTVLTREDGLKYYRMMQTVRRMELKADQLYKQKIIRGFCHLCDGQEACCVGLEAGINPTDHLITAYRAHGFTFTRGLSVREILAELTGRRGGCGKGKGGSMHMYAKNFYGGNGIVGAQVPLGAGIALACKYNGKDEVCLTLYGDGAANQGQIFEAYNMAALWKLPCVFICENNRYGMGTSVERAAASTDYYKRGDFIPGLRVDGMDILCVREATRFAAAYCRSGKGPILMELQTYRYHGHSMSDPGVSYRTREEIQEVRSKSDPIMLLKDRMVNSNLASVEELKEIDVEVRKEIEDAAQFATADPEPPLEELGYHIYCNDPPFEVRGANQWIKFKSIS
Nature of the data set: Porcine PDH E1 inhibitory activity assay (DCPIP reduction). In kind it is biochemical. The procedure: Porcine PDH E1 was purchased from Sigma. Porcine PDH E1 activity was determined by monitoring 2,6-dichlorophenolindophenol (DCPIP) reduction at 600 nm using a microplate reader (CLARIOstar) and conducted as described[5] with some modifications. […] The reaction buffer (50 mM KH2PO4 and 1 mM MgCl2, pH 7) contained thiamine pyrophosphate (TPP) at specified concentrations, 0.25 mM DCPIP, and 2 mg/mL porcine PDH E1. The reaction mixture was preincubated at 37 °C with the inhibitor for 30 min, and then the reaction was initiated by adding pyruvate to a final concentration of 50 mM. To determine the half-maximal inhibitory concentration (IC50), the TPP concentration was set at 60 μM with varying inhibitor concentrations. Specific activity was calculated using the molar extinction coefficient of DCPIP, 21 mM^–1 cm^–1.[28] The IC50 values were calculated from nonlinear regression curve fitting using GraphPad Prism.
Porcine PDH E1 inhibitory activity assay. Porcine PDH E1 was purchased from Sigma. Porcine PDH E1 activity was determined by monitoring 2,6-dichlorophenolindophenol (DCPIP) reduction at 600 nm using a microplate reader (CLARIOstar) and conducted as described3 with some modifications. The […]
buffer (50 mM KH2PO4 and 1 mM MgCl2, pH 7) contained thiamine pyrophosphate (TPP) at specified concentrations, 0.25 mM 2,6-dichlorophenolindophenol (DCPIP), and 2 mg/mL porcine PDH E1. The reaction mixture was preincubated at 37 °C with the inhibitor for 30 min, then reaction was initiated by adding pyruvate to a final concentration of 50 mM. To determine the half-maximal inhibitory concentration (IC50), TPP concentration was set at 60 µM with varying inhibitor concentrations. […]
values were calculated from non-linear regression curve fitting using GraphPad Prism. […]

The nature of data set [2]: PAMPA (parallel artificial membrane permeability assay). It counts as in vitro ADME. (In PAMPA a lipid-coated filter parts donor from acceptor wells.)
The target in data set [3] is E. coli OGDH E1 (Escherichia coli, UniProt P0AFG3). The experiment in a line: E. coli OGDH E1 inhibitory activity assay (DCPIP reduction). It counts as biochemical. The procedure: E. coli OGDH E1 was from material donated by R. Frank. E. coli OGDH E1 activity was determined by monitoring DCPIP reduction at 600 nm using a microplate reader (CLARIOstar) and conducted as described[5] with some modifications. […] The reaction buffer (50 mM KH2PO4 and 2 mM MgCl2, pH 7) contained TPP at specified concentrations, 0.5 mM DCPIP, and 6.7 mg/mL E. coli OGDH E1. The reaction mixture was preincubated at 37 °C with the inhibitor for 60 min, and then the reaction was initiated by adding α-ketoglutarate to a final concentration of 10 mM. To determine the IC50, the TPP concentration was set at 60 μM with varying inhibitor concentrations. Specific activity was calculated using the molar extinction coefficient of DCPIP, 21 mM^–1 cm^–1.[28] The IC50 values were calculated from nonlinear regression curve fitting using GraphPad Prism.
Enzyme inhibitory activity assays – methods and results (Figures S1-4) […]
The compound […]
E. coli OGDH E1 inhibitory activity assay. E. coli OGDH E1 was from material donated by R. Frank. E. coli OGDH E1 activity was determined by monitoring DCPIP reduction at 600 nm using a microplate reader (CLARIOstar) and conducted as described3 with some modifications. The percentage inhibition of compounds against E. coli OGDH E1 was assayed at 250 μM. The reaction buffer (50 mM KH 2PO4 and 2 mM MgCl2, pH 7) contained TPP at specified concentrations, 0.5 mM DCPIP, and 6.7 mg/ml E. coli OGDH E1. The reaction mixture was preincubated at 37 °C with the inhibitor for 60 min, then reaction was initiated by adding α-ketoglutarate to a final concentration of 10 mM. To determine the IC50, TPP concentration was set at 60 µM with varying inhibitor concentrations. Specific activity was […]

[4] abbreviates: [Compound] = 250 μM, [TPP] = 50 μM.
The mark [5] stands for this setting: [Compound] = [TPP] = 250 μM, read-out: % Inhibition (1:1).

E. coli OGDH E1, sequence (P0AFG3 whole entry): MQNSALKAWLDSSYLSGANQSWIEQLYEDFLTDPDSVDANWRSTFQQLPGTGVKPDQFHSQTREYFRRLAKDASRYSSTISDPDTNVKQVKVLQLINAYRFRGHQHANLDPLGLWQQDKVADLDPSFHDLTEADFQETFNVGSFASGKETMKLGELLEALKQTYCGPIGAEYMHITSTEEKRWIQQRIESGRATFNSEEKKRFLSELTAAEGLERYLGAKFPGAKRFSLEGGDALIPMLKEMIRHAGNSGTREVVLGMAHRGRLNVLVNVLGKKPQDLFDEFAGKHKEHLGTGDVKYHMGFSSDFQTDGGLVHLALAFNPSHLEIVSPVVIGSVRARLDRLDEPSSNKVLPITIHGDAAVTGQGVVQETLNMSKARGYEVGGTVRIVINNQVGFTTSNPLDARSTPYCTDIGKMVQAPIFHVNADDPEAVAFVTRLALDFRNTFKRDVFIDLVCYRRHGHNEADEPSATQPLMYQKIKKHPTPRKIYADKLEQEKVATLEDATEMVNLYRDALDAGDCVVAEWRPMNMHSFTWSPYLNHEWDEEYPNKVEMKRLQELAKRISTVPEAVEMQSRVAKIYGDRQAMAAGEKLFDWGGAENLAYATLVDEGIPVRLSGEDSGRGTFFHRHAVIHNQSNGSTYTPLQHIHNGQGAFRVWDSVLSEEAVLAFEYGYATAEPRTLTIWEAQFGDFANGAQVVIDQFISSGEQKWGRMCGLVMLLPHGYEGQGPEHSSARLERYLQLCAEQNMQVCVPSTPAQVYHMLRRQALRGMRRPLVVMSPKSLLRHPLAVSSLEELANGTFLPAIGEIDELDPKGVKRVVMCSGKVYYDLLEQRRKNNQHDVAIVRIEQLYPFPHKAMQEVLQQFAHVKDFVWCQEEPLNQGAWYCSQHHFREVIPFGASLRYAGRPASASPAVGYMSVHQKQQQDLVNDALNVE

A word on the inhibition: it is the percentage by which the read-out fell short of the control. As a reminder, the IC50 is the concentration at which inhibition is half-maximal. One may read the Ki as the dissociation constant of the complex between target and ligand, obtained from inhibition or displacement. Take `Cc1ncc(Cn2cc(CCCC(=O)[O-])nn2)c(N)n1.[K+]` [16a]: the entries for the “% Inhibition (5:1)” value in data set [1] (setting [4]) and in data set [3] (setting [4]) were 75 ± 4% and 49 ± 3%, respectively. Also, the results for the inhibition at 250 µM in data set [1] (setting [5]) and in data set [3] (setting [5]) were 34 ± 3% and less than 20%, respectively. The results for the “vs TPP: affinity of the compound relative to that of TPP (= [TPP]/IC50)” value in data set [1] ([TPP] = 60 µM) and in data set [3] ([TPP] = 60 µM) were 0.54 and 0.19, respectively. In addition, the IC50 in data set [1] ([TPP] = 60 µM, read-out: IC50 (μM ± SEM)) worked out at 111 ± 18 µM; in data set [3] (read-out: IC50 (μM ± SEM), [TPP] = 60 µM) it was 316 ± 57 µM. In addition, the Ki in data set [1] (calculated from KM(TPP) 0.05 µM using [TPP]/IC50 = KM(TPP)/KI) was 0.093 µM; in data set [3] (calculated from KM(TPP) 3 µM using [TPP]/IC50 = KM(TPP)/KI) it was 16 µM. In addition, the “membrane permeability in PAMPA (in words)” value in data set [2] is “impermeable”. For the same compound, the Papp at 10 h, 500 µM in data set [2] (PAMPA, compounds at 500 µM, 5% DMSO in PBS pH 7.4, 10 hours, room temperature, read-out: PAMPA log Pe (converted)) was 0.398 ×10⁻⁶ cm/s. Also, the “Fa (fraction absorbed)” value in data set [2] (compounds at 500 µM, 5% DMSO in PBS pH 7.4, 10 hours, room temperature) was found to be 3%.

Values taken from article PMC11483378, “Triazole-Based Thiamine Analogues as Inhibitors of Thiamine Pyrophosphate-Dependent Enzymes: 1,3-Dicarboxylate for Metal Binding” (ACS Omega, 2024).
